Measurements published in PMC6154344, “Hibiscus sabdariffa L. and Its Bioactive Constituents Exhibit Antiviral Activity against HSV-2 and Anti-Enzymatic Properties against Urease by an ESI-MS Based Assay” (Molecules : A Journal of Synthetic Chemistry and Natural …, 2017).

Molecular target: Urease (Type III, from Canavalia ensiformis) (Canavalia ensiformis, UniProt P07374)
Assay: ESI-MS (MRM) assay of urea depletion by purified urease, […] min pre-incubation with inhibitor
Assay type: biochemical

Sequence of Urease (Type III, from Canavalia ensiformis) (P07374 whole entry): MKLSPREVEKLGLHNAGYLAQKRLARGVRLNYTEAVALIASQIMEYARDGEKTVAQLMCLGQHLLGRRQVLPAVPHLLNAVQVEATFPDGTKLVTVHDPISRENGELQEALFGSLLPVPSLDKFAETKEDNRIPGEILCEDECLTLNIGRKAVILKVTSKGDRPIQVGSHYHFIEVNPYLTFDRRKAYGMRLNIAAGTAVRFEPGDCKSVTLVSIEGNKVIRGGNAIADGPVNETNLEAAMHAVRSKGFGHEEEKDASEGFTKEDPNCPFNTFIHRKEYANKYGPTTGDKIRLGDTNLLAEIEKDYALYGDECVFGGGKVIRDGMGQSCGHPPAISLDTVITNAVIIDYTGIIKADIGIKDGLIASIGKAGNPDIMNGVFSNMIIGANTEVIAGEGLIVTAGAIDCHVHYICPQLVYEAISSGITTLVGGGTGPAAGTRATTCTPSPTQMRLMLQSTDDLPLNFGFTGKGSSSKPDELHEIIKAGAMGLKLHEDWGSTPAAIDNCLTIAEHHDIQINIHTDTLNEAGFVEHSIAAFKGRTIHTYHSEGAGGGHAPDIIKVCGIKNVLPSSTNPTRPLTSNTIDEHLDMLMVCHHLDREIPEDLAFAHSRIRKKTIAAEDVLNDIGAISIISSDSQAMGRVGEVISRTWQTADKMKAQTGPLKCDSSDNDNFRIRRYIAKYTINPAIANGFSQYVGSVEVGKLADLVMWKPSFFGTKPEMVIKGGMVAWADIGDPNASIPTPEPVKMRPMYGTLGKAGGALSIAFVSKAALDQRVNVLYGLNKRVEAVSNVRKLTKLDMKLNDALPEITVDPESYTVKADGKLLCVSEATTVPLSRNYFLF

`CC(=O)NO` [AHA, acetohydroxamic acid] showed an IC50 of 4.3 µM.
